# Source: patent US20230364121A1 (priority 2020, published 2023)
# Where two headings read alike, the source gives them in different places.
# Tests used:
# mock infected BHK cells = test: Cytotoxicity in mock infected BHK cells (MTT); format: cell-based, hamster; details: Table 2B; MTT, 3 days
# Experimental: (§1) To determine the cytotoxicity, cells were seeded at an initial density of 1×10^6 cells/mL in 96 well plates containing Minimum Essential Medium with Earles's salts (MEM-E), L-glutamine, 1 mM sodium pyruvate and 25 mg/L kanamycin, supplemented with 10% fetal bovine serum. Cell cultures were then incubated at 37° C. in a humidified 5% CO2 atmosphere in the absence or presence of serial dilutions of test compounds. Cell viability was determined by the MTT method.
# (§2) Uninfected cells in the presence of serially diluted compound were used to assess the cytotoxicity of compounds.
# HCoV [1] = test: microbe, parasite or virus in culture; format: cell-based, human coronavirus
# HCoV [2] = test: microbe, parasite or virus in culture; format: cell-based, human coronavirus; remark: listed apart in the source
# [3] = Cytotoxicity in mock infected MES-1 cells (MTT); format: cell-based; details: mock infected MES-1 cells, Table 3A
# Experimental: as §1
# [4] = test system: mock infected MES-1 cells; test: Cytotoxicity in mock infected MES-1 cells (MTT); format: cell-based; details: Table 3B, 3 days
# Experimental: as §1
# [5] = test system: human coronavirus alpha-229E; test: microbe, parasite or virus in culture; format: cell-based, HCoV-229E; details: for EC90: read-out: Virus Yield Reduction Assay EC90
# Huh7 cells = details: human
# nsp12 NiRAN active-site = nsp12 NiRAN active-site (Severe acute respiratory syndrome coronavirus, UniProt P0C6X7); test: biochemical; format: biochemical, SARS-CoV
# [6] = Cytotoxicity in mock infected BHK cells (MTT); format: cell-based, hamster; details: hamster, uninfected BHK-21 cells; BHK-21; Table 5
# Experimental: as §1, §2
# HCoV-229E = test: Virus-induced CPE assay, HCoV-229E in BHK-21 cells (MTT); format: cell-based; details: Human coronavirus 229E, BHK-21, 72 h, BHK-21; dye staining; 3-day incubation; read-out: EC50
# Experimental: In an initial screening, BHK-21 cells acutely infected with a seasonal human alpha coronavirus, HCoV-229E, were exposed to serial dilutions of Compound 1A.
# BHK-21 cells: Test compounds were dissolved in DMSO at 100 mM and then diluted in Minimum Essential Medium with Earle's salts (MEM-E) containing 1 mM sodium pyruvate and 25 μg/mL kanamycin, supplemented with 10% FBS (growth medium) to final concentrations of 100, 20, 4 and 0.8 μM (two […] replica plates each). After BHK-21 cells were grown to confluency in 96-well plates, growth medium was replaced with fresh maintenance medium (growth medium with 1% inactivated FBS in place of 10% FBS) containing serially diluted test compound and HCoV-229E at a multiplicity of infection (MOI) of 0.01. Uninfected cells in the presence of serially diluted compound were used to assess the cytotoxicity of compounds. After a 3-day incubation at 37° C. in a humidified 5% CO2 atmosphere, cell viability was determined by the MTT method (Pauwels, R et al. J. Virol. Methods 20(4):309-321 (1988)).
# [7] = unidentified human coronavirus, 72 h
SMILES,EC50 (HCoV [2]; [7]),CC50 at 3 days [3],EC50 (HCoV [2]),CC50 [4],other results
CCC(CC)COC(=O)[C@H](C)N[P@](=O)(OC[C@H]1O[C@@](C#N)(c2ccc3c(N)ncnn23)[C@H](O)[C@@H]1O)Oc1ccccc1 [drawing 244],,,,,CC50 (mock infected BHK cells): > 100 µM; EC50 (HCoV [1]): 7 µM
CC(C)[C@H](N)C(=O)O[C@@H]1[C@@H](CO)O[C@@H](n2ccc(N)nc2=O)[C@]1(C)O [drawing 245],,,,,CC50 (mock infected BHK cells): > 100 µM
CNc1nc(N)nc2c1ncn2[C@@H]1O[C@H](CO[P@@](=O)(N[C@@H](C)C(=O)OC(C)C)Oc2ccccc2)[C@@H](O)[C@@]1(C)F [drawing 246],1600 nM,> 100 µM,,,
CNc1nc(N)nc2c1ncn2[C@@H]1O[C@H](CO[P@](=O)(N[C@@H](C)C(=O)OC(C)C)Oc2ccccc2)[C@@H](O)[C@@]1(C)F [drawing 247],2000 nM,> 100 µM,,,
CC(C)OC(=O)[C@H](C)N[P@](=O)(OCC1O[C@@H](n2ccc(=O)[nH]c2=O)[C@](C)(F)[C@@H]1O)Oc1ccccc1 (stereo partly drawn) [drawing 248],> 100000 nM,> 100 µM,,,
CC(C)(CO)C(=O)SCCOP(=O)(NCc1ccccc1)OC[C@H]1O[C@@H](n2cnc3c(=O)[nH]c(N)nc32)[C@](C)(O)[C@@H]1O (stereo partly drawn) [drawing 250],1900 nM,82 µM,,,
CCC(CC)COC(=O)[C@H](C)N[P@](=O)(OC[C@H]1O[C@@](C#N)(c2ccc3c(N)ncnn23)[C@H](O)[C@@H]1O)Oc1ccccc1 [drawing 251],6000 nM,> 100 µM,,,
CC(C)[C@H](N)C(=O)O[C@@H]1[C@@H](CO)O[C@@H](n2ccc(N)nc2=O)[C@]1(C)O [drawing 252],> 100000 nM,> 100 µM,,,
CNc1nc(N)nc2c1ncn2[C@@H]1O[C@H](CO[P@@](=O)(N[C@@H](C)C(=O)OC(C)C)Oc2ccccc2)[C@@H](O)[C@@]1(C)F [drawing 253],,,2000 nM,> 100 µM,
CNc1nc(N)nc2c1ncn2[C@@H]1O[C@H](CO[P@](=O)(N[C@@H](C)C(=O)OC(C)C)Oc2ccccc2)[C@@H](O)[C@@]1(C)F [drawing 254],,,2200 nM,> 100 µM,
CC(C)OC(=O)[C@H](C)N[P@](=O)(OCC1O[C@@H](n2ccc(=O)[nH]c2=O)[C@](C)(F)[C@@H]1O)Oc1ccccc1 (stereo partly drawn) [drawing 255],,,> 100000 nM,> 100 µM,
CC(C)(CO)C(=O)SCCOP(=O)(NCc1ccccc1)OC[C@H]1O[C@@H](n2cnc3c(=O)[nH]c(N)nc32)[C@](C)(O)[C@@H]1O (stereo partly drawn) [drawing 257],,,1700 nM,82 µM,
CCC(CC)COC(=O)[C@H](C)N[P@](=O)(OC[C@H]1O[C@@](C#N)(c2ccc3c(N)ncnn23)[C@H](O)[C@@H]1O)Oc1ccccc1 [drawing 258],,,5500 nM,> 100 µM,
CC(C)[C@H](N)C(=O)O[C@@H]1[C@@H](CO)O[C@@H](n2ccc(N)nc2=O)[C@]1(C)O [drawing 259],,,,> 100 µM,
"CCN(CCO)CCCC(C)Nc1ccnc2cc(Cl)ccc12 (stereo not drawn) [hydroxychloroquine, reference compound]",,,,,"EC90 [5]: < 48 nM; EC90 ([5]; unidentified human coronavirus, Huh-7, 72 h): < 50 nM; EC50 ([5]; unidentified human coronavirus, Huh-7, 120 h, read-out: Neutral Red Assay EC50): 7.4 µM; CC50 (Huh7 cells): 26 µM"
"CC(C)OC(=O)[C@H](C)N[P@](=O)(OC[C@H]1O[C@@H](n2ccc(=O)[nH]c2=O)[C@](C)(F)[C@@H]1O)Oc1ccccc1 [sofosbuvir, reference compound]",,,,,fold less efficient at blocking nsp8 labeling / UMPylation than AT-9010 (nsp12 NiRAN active-site): about 5 fold; CC50 at 3 days [6]: > 100 µM; EC50 (HCoV-229E): > 100 µM
